Laboratory results taken from patent US20230286968A1, “ARYLOXAZOLO SPIRAL RING DERIVATIVES FOR THE TREATMENT AND PROPHYLAXIS OF HEPATITIS B VIRUS INFECTION” (Hoffmann-La Roche Inc., priority 2020, published 2023).
Read-outs that look alike come from different tables or passages of the source.

Tests used:
[1] = Cytotoxicity in PHH natural infection assay (Cell Counting Kit-8); type: cell-based; settings: HBV-infected primary human hepatocytes, CCK8
Protocol: (§1) Detailed procedures regarding primary human hepatocyte (PHH) HBV natural infection assay are described as below. One tube of frozen PHH (10 million cells) is thawed in 37° C. water bath and then transferred to 20 mL of PHH thawing medium (Sigma, InVitroGRO HT Medium, Cat. S03319) with gently mixing. The cells were then centrifuged at […] for 5 min, the supernatant was discarded and the tube was refilled with 25 mL of PHH plating medium (Sigma, InVitroGRO CP Medium, Cat. S03317). The tube was shaken very gently to re-suspend all cells, and then 50 μL of cells were transferred to each well 384-well collagen I coated plate with appropriate liquid handling equipment, e.g. Integra VIAFLO384 or Agilent Bravo. The cells were then cultured for 24 hours in a cell incubator. For HBV infection, after PHH attachment on the culture plate, the plating medium was removed and replenished with PHH culture medium containing HBV virus. The PHH culture medium was prepared with Dulbecco's Modified Eagle Medium (DMEM)/F12 (1:1 in volume ratio) containing 10% fetal bovine serum (Gibco, Cat. 10099141), 5 ng/mL human epidermal growth factor (Gibco, Cat.PHG0311L), 20 ng/mL dexamethasone (Sigma, Cat.D4902-100 mg), 250 ng/mL human recombinant insulin (Gibco, Cat.41400045) and 100 U/mL penicillin. HBV virus at 200 genome equivalent (GE) per cell with 4% PEG8000 (Sigma, Cat.P1458) containing culture medium were added to the PHH culture medium for infection. The cells were then cultured for 24 hours in cell incubator. Then the cell culture supernatant was removed. The HBV-infected PHH were cultured with sandwich culture method with PHH culture medium containing […] and 0.25 mg/mL matrix gel for 72 hours. The supernatant was then refreshed with PHH culture medium containing different concentrations of testing compounds for two times with 72-hour interval. At the end of treatment, the supernatant was collected for viral markers measurements, including HBsAg, HBeAg, HBV DNA and cytotoxicity. HBsAg and HBeAg were detected using alphalisa method using their specific antibodies. For HBV DNA detection, HBV DNA Quantitative Fluorescence Diagnostic Kit (Sansure Biotech Inc.) was used following the manufacture's protocol. Cytotoxicity was determined using Cell Counting Kit-8 (CCK8, Dojindo Molecular Technologies, Inc.).

HBsAg = test: PHH natural infection assay, HBsAg (alphalisa); type: cell-based, HBV
Protocol: as §1
(§2) The compounds of the present invention were tested for their capacity to inhibit HBsAg and HBeAg as described herein.

HBeAg = test: PHH natural infection assay, HBeAg (alphalisa); type: cell-based, HBV
Protocol: as §1, §2

[2] = Hepatitis B virus, Hepatocyte, read-out: HBsAg IC50, HBV-infected primary human hepatocytes, supernatant, alphalisa
[3] = Hepatitis B virus, Hepatocyte, read-out: HBeAg IC50, HBV-infected primary human hepatocytes, supernatant, alphalisa
[4] = read-out: HBsAg IC50, HBV-infected primary human hepatocytes, supernatant, alphalisa
[5] = read-out: HBeAg IC50, HBV-infected primary human hepatocytes, supernatant, alphalisa

Structure (SMILES)	CC50 at 144 h [1] [µM]	IC50 (HBsAg; [2]) [µM]	IC50 (HBeAg; [3]) [µM]	IC50 (HBsAg; [4]) [µM]	IC50 (HBeAg; [5]) [µM]
[H][C@]1(C(=O)N[C@]2([H])C[C@@]3(C2)C[C@@]([H])(c2nc4cc(Cl)ccc4o2)C3)CC(=O)N(C)C1 (single isomer, unassigned) [Example 94d]	> 100	2.57	1.46		
CC(=O)NS(=O)(=O)c1cc(C(=O)NC2CC3(C2)CC(c2nc4cc(Cl)ccc4o2)C3)ccn1 (stereo not drawn) [Example 99, 2-(Acetylsulfamoyl)-N-[6-(5-chloro-1,3-benzoxazol-2-yl)spiro[3.3]heptan-2-yl]pyridine-4-carboxamide]	> 10	2.1	1.33		
CS(=N)(=O)c1cc(C(=O)NC2CC3(C2)CC(c2nc4cc(Cl)ccc4o2)C3)ccn1 (stereo not drawn) [Example 89, N-[6-(5-chloro-1,3-benzoxazol-2-yl)spiro[3.3]heptan-2-yl]-2-(methylsulfonimidoyl)pyridine-4-carboxamide]	> 100	2.45	0.86		
N=C(N)c1cc(C(=O)NC2CC3(C2)CC(c2nc4cc(Cl)ccc4o2)C3)ccn1 (stereo not drawn) [Example 96, 2-Carbamimidoyl-N-[6-(5-chloro-1,3-benzoxazol-2-yl)spiro[3.3]heptan-2-yl]pyridine-4-carboxamide]	> 10	7.6	5.65		
O=C(NC1CC2(C1)CC(c1nc3cc(Cl)ccc3o1)C2)c1ccnc(S(=O)(=O)C2COC2)c1 (stereo not drawn) [Example 25, N-[6-(5-chloro-1,3-benzoxazol-2-yl)spiro[3.3]heptan-2-yl]-2-(oxetan-3-ylsulfonyl)pyridine-4-carboxamide]	> 10	4.18	2.53		
CC1(C(=O)NC2CC3(C2)CC(c2nc4cc(Cl)ccc4o2)C3)CCS(=O)(=O)C1 (stereo not drawn) [Example 48, N-(6-(5-chlorobenzo[d]oxazol-2-yl)spiro[3.3]heptan-2-yl)-3-methyltetrahydrothiophene-3-carboxamide 1,1-dioxide]	> 100	2.62	1.1		
O=C(NC1CC2(C1)CC(c1nc3cc(Cl)ccc3o1)C2)C1CC2(C1)CS(=O)(=O)C2 (stereo not drawn) [Example 52, N-[6-(5-chloro-1,3-benzoxazol-2-yl)spiro[3.3]heptan-2-yl]-2,2-dioxo-2-thiaspiro[3.3]heptane-6-carboxamide]	> 100	9.99	5.71		
CN(C)c1cc(C(=O)NC2CC3(C2)CC(c2nc4cc(Cl)ccc4o2)C3)ccn1 (stereo not drawn) [Example 11, N-[6-(5-chloro-1,3-benzoxazol-2-yl)spiro[3.3]heptan-2-yl]-2-(dimethylamino)pyridine-4-carboxamide]	> 100	2.85	2.67		
CCNC(=O)NC1CC2(C1)CC(c1nc3cc(Cl)ccc3o1)C2 (stereo not drawn) [Example 59, 1-[6-(5-chloro-1,3-benzoxazol-2-yl)spiro[3.3]heptan-2-yl]-3-ethyl-urea]	> 100	8.6	3.94		
Cc1cnc(-c2cc(C(=O)NC3CC4(C3)CC(c3nc5cc(Cl)ccc5o3)C4)ccn2)s1 (stereo not drawn) [Example 15, N-[6-(5-chloro-1,3-benzoxazol-2-yl)spiro[3.3]heptan-2-yl]-2-(5-methylthiazol-2-yl)pyridine-4-carboxamide]	> 10	2.25	1.47		
CCS(=O)(=O)c1cc(C(=O)N(C)C2CC3(CC(c4nc5cc(Cl)ccc5o4)C3)C2)ccn1 (stereo not drawn) [Example 93, N-[6-(5-chloro-1,3-benzoxazol-2-yl)spiro[3.3]heptan-2-yl]-2-ethylsulfonyl-N-methyl-pyridine-4-carboxamide]	> 10	3.08	2.21		
O=C(NC1CC2(C1)CC(c1nc3cc(Cl)ccc3o1)C2)c1ccnc(C(F)(F)F)c1 (stereo not drawn) [Example 21, N-[6-(5-chloro-1,3-benzoxazol-2-yl)spiro[3.3]heptan-2-yl]-2-(trifluoromethyl)pyridine-4-carboxamide]	82	1.82	1.98		
[H][C@]1(NC(=O)C2CCS(=O)(=O)CC2)C[C@]2(C1)C[C@]([H])(c1nc3cc(Cl)ccc3o1)C2 (single isomer, unassigned) [Example 82a, (Ra)—N-[6-(5-chloro-1,3-benzoxazol-2-yl)spiro[3.3]heptan-2-yl]-1,1-dioxo-thiane-4-carboxamide]	> 100			6.57	5.13
CCS(=O)(=O)c1cc(C(=O)NC2CC3(C2)CC(c2nc4cc(Cl)ccc4o2)C3)ccn1 (stereo not drawn) [Example 26, N-[6-(5-chloro-1,3-benzoxazol-2-yl)spiro[3.3]heptan-2-yl]-2-ethylsulfonyl-pyridine-4-carboxamide]	74.1	0.28	0.19		
O=C(CC1CS(=O)(=O)C1)NC1CC2(C1)CC(c1nc3cc(Cl)ccc3o1)C2 (stereo not drawn) [Example 50, N-[6-(5-chloro-1,3-benzoxazol-2-yl)spiro[3.3]heptan-2-yl]-2-(1,1-dioxothietan-3-yl)acetamide]	> 100	1.96	1.36		
Cc1ccc(S(=O)(=O)N2CC(CC(=O)NC3CC4(C3)CC(c3nc5cc(Cl)ccc5o3)C4)C2)cc1 (stereo not drawn) [Example 78, N-[6-(5-chloro-1,3-benzoxazol-2-yl)spiro[3.3]heptan-2-yl]-2-[1-(p-tolylsulfonyl)azetidin-3-yl]acetamide]	> 10	4.77	4.37		
CC(C)CC(=O)NC1CC2(C1)CC(c1nc3cc(Cl)ccc3o1)C2 (stereo not drawn) [Example 28, N-[6-(5-chloro-1,3-benzoxazol-2-yl)spiro[3.3]heptan-2-yl]-3-methyl-butanamide]	> 100	2.54	2.28		
CS(=O)(=O)c1cc(C(=O)NC2CC3(C2)CC(c2nc4cc(Cl)cnc4o2)C3)ccn1 (stereo not drawn) [Example 88, N-[6-(6-chlorooxazolo[5,4-b]pyridin-2-yl)spiro[3.3]heptan-2-yl]-2-methylsulfonyl-pyridine-4-carboxamide]	> 10	2.42	1.65		
[H][C@@]1(C(=O)N[C@]2([H])C[C@@]3(C2)C[C@@]([H])(c2nc4cc(Cl)ccc4o2)C3)CC(=O)N(C)C1 (single isomer, unassigned) [Example 94c]	> 100	1.24	0.61		
CS(=O)(=O)c1cc(C(=O)NC2CC3(C2)CC(c2nc4cc(Cl)ccc4o2)C3)c(Cl)cn1 (stereo not drawn) [Example 90, 5-Chloro-N-[6-(5-chloro-1,3-benzoxazol-2-yl)spiro[3.3]heptan-2-yl]-2-methylsulfonyl-pyridine-4-carboxamide]	> 10	2.99	2.26		
O=C(NC1CC2(C1)CC(c1nc3cc(Cl)ccc3o1)C2)c1ccnc(N2CCCCC2)c1 (stereo not drawn) [Example 8, N-[6-(5-chloro-1,3-benzoxazol-2-yl)spiro[3.3]heptan-2-yl]-2-(1-piperidyl)pyridine-4-carboxamide]	> 10	4.73	4.05		
[H][C@]1(NC(=O)c2ccnc(S(=O)(=O)C3CC3)c2)C[C@]2(C1)C[C@]([H])(c1nc3cc(Cl)ccc3o1)C2 (single isomer, unassigned) [Example 84a, (Ra)—N-[6-(5-chloro-1,3-benzoxazol-2-yl)spiro[3.3]heptan-2-yl]-2-cyclopropylsulfonyl-pyridine-4-carboxamide]	84.3			0.07	0.13
